Structures can show the parent of a compound that is named as a salt.
These compounds were tested against T1, hDGAT1 (Homo sapiens, UniProt O75907) (assay: In-vitro DGAT1 assay with hDGAT1 microsomes from Sf9 cells (14C oleoyl CoA, scintillation counting)). Details: at 1 μM.
T1 construct: made in house; host or cells: Sf9 insect cells (baculovirus); microsomal fraction
T1 sequence (O75907 1-488): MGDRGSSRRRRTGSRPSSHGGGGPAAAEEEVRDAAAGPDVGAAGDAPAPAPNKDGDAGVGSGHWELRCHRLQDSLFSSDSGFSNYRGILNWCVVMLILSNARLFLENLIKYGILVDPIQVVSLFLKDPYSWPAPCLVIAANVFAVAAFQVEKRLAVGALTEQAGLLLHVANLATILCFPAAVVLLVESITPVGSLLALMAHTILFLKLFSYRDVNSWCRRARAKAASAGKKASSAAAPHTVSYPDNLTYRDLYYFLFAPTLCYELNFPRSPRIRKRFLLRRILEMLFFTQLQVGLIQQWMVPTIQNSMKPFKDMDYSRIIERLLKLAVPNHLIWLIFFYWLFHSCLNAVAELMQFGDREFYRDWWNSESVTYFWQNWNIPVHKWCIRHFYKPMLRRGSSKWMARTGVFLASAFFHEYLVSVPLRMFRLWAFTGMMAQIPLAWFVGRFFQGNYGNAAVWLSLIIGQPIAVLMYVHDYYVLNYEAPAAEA
Assay type: biochemical
How it was run: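 Radiolabelled triglyceride formation was measured: heptane extracts were scintillation-counted after a 10-min, 37 °C reaction stopped with alkaline ethanol. Enzyme was human DGAT1 in baculovirus-infected Sf9 microsomal membranes; substrates were 14C oleoyl-CoA plus dioleoylglycerol. Runs were duplicated, and inhibition (%) was related to nM compound concentration.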

Percentage inhibition of hDGAT1 | Compound
+ (20-50% Inhibition) | O=C(Nc1ccc(-c2noc([C@H]3CC[C@H](C(=O)O)CC3)n2)cc1)Nc1ccccc1Cl [Example 219, (1r,4r)-4-(3-(4-(3-(2-Chlorophenyl)ureido)phenyl)-1,2,4-oxadiazol-5-yl)cyclo hexanecarboxylic acid]
+ (20-50% Inhibition) | O=C(Nc1ccc(-c2noc([C@H]3CC[C@H](C(=O)O)CC3)n2)cc1)Nc1ccc(F)cc1F [Example 221, (1r,4r)-4-(3-(4-(3-(2,4-Difluorophenyl)ureido)phenyl)-1,2,4-oxadiazol-5-yl)cyclohexanecarboxylic acid]
+ (20-50% Inhibition) | Cc1ccc(NC(=O)Nc2ccc(-c3noc([C@H]4CC[C@H](C(=O)O)CC4)n3)cc2)cc1 [Example 223, (1r,4r)-4-(3-(4-(3-p-Tolylureido)Phenyl)-1,2,4-oxadiazol-5-yl)cyclohexane carboxylic acid]
++ (>50 % Inhibition) | O=C(Nc1ccc(-c2noc([C@H]3CC[C@H](C(=O)O)CC3)n2)cc1)Nc1cccc(Cl)c1 [Example 225, (1r,4r)-4-(3-(4-(3-(3-Chlorophenyl)ureido)phenyl)-1,2,4-oxadiazol-5-yl)cyclo hexanecarboxylic acid]
++ (>50 % Inhibition) | O=C(Nc1ccc(-c2noc([C@H]3CC[C@H](C(=O)O)CC3)n2)cc1)Nc1ccc(Cl)cc1Oc1ccccc1 [Example 227, (1r,4r)-4-(3-(4-(3-(4-Chloro-2-phenoxyphenyl)ureido)phenyl)-1,2,4-oxadiazol-5-yl)cyclohexanecarboxylic acid]
+ (20-50% Inhibition) | CC(C)(C)c1ccc(C(=O)Nc2ccc(-c3noc([C@H]4CC[C@H](C(=O)O)CC4)n3)cc2)cc1 [Example 229, (1r,4r)-4-(3-(4-(4-tert-Butylbenzamido)phenyl)-1,2,4-oxadiazol-5-yl)cyclo hexane carboxylic acid]
+ (20-50% Inhibition) | O=C(Nc1ccc(-c2noc([C@H]3CC[C@H](C(=O)O)CC3)n2)cc1)c1ccc(OC(F)(F)F)cc1 [Example 233, (1r,4r)-4-(3-(4-(4-(Trifluoromethoxy)benzamido)phenyl)-1,2,4-oxadiazol-5-yl)cyclohexanecarboxylic acid]
++ (>50 % Inhibition) | CC(C)(CCc1ncc(-c2ccc(NC(=O)Nc3cc(F)cc(F)c3)cc2)s1)C(=O)[O-].[Na+] [Example 235A, Sodium salt of 4-(5-(4-(3-(3,5-difluorophenyl)ureido)phenyl)thiazol-2-yl)-2,2-dimethylbutanoate]
++ (>50 % Inhibition) | CC(C)(CCc1ncc(-c2ccc(NC(=O)Nc3cc(F)c(F)cc3F)cc2)s1)C(=O)[O-].[Na+] [Example 237A, Sodium salt of 2,2-dimethyl-4-(5-(4-(3-(2,4,5-trifluorophenyl)ureido)phenyl)thiazol-2-yl)butanoate]
++ (>50 % Inhibition) | CC(C)(CCc1ncc(-c2ccc(NC(=O)Nc3cc(F)c(F)c(F)c3)cc2)s1)C(=O)[O-].[Na+] [Example 255A, Sodium salt of 2,2-dimethyl-4-(5-(4-(3-(3,4,5-trifluorophenyl)ureido)phenyl)thiazol-2-yl)butanoate]

Compound | Percentage inhibition of hDGAT1
O=C(Nc1ccc(-c2noc([C@H]3CC[C@H](C(=O)O)CC3)n2)cc1)c1ccc(-c2ccccc2)cc1 [Example 231, (1r,4r)-4-(3-(4-Biphenyl-4-ylcarboxamidophenyl)-1,2,4-oxadiazol-5-yl)cyclo hexanecarboxylic acid] | + (20-50% Inhibition)

Same assay, conditions: read-out: Percentage inhibition of hDGAT1

inhibition at 1 µM [%] | Compound
> 50 | CC(C)(CCc1ncc(-c2ccc(NC(=O)Nc3cc(F)cc(F)c3)cc2)s1)C(=O)O [Example 235, 4-(5-(4-(3-(3,5-Difluorophenyl)ureido)phenyl)thiazol-2-yl)-2,2-dimethyl butanoic acid]
> 50 | CC(C)(CCc1ncc(-c2ccc(NC(=O)Nc3cc(F)c(F)cc3F)cc2)s1)C(=O)O [Example 237, 2,2-Dimethyl-4-(5-(4-(3-(2,4,5-trifluorophenyl)ureido)phenyl)thiazol-2-yl)butanoic acid]
20 to 50 | CC(C)(CCc1ncc(-c2ccc(NC(=O)N3CCCCC3)cc2)s1)C(=O)O [Example 239, 2,2-Dimethyl-4-(5-(4-(piperidine-1-carboxamido)phenyl)thiazol-2-yl)butanoic acid]
20 to 50 | CC(C)(CCc1ncc(-c2ccc(NC(=O)N3CCOCC3)cc2)s1)C(=O)O [Example 241, 2,2-Dimethyl-4-(5-(4-(morpholine-4-carboxamido)phenyl)thiazol-2-yl)butanoic acid]
20 to 50 | CN1CCN(C(=O)Nc2ccc(-c3cnc(CCC(C)(C)C(=O)O)s3)cc2)CC1 [Example 243, 2,2-Dimethyl-4-(5-(4-(4-methylpiperazine-1-carboxamido)phenyl)thiazol-2-yl)butanoic acid hydrochloride]
> 50 | CC(C)(CCc1ncc(-c2ccc(NC(=O)Nc3ccc4c(c3)OCCO4)cc2)s1)C(=O)O [Example 245, 4-(5-(4-(3-(2,3-Dihydrobenzo[b][1,4]dioxin-6-yl)ureido)phenyl)thiazol-2-yl)-2,2-dimethylbutanoic acid]
20 to 50 | CC(C)(CCc1ncc(-c2ccc(NC(=O)Nc3nnn[nH]3)cc2)s1)C(=O)O [Example 247, 4-(5-(4-(3-(1H-tetrazol-5-yl)ureido)phenyl)thiazol-2-yl)-2,2-dimethylbutanoic acid]
20 to 50 | COCCNC(=O)Nc1ccc(-c2cnc(CCC(C)(C)C(=O)O)s2)cc1 [Example 249, 4-(5-(4-(3-(2-methoxyethyl)ureido)phenyl)thiazol-2-yl)-2,2-dimethylbutanoic acid]
> 50 | CC(C)(CCc1ncc(-c2ccc(NC(=O)NC3Cc4ccccc4C3)cc2)s1)C(=O)O [Example 251, 4-(5-(4-(3-(2,3-Dihydro-1H-inden-2-yl)ureido)phenyl)thiazol-2-yl)-2,2-dimethyl butanoic acid]
> 50 | CC(C)(CCc1ncc(-c2ccc(NC(=O)Nc3cc(F)c(F)c(F)c3)cc2)s1)C(=O)O [Example 255, 2,2-dimethyl-4-(5-(4-(3-(3,4,5-trifluorophenyl)ureido)phenyl)thiazol-2-yl)butanoic acid]
20 to 50 | CC(C)(CCc1ncc(-c2ccc(NC(=O)NCCN3CCCCC3)cc2)s1)C(=O)O [Example 257, 2,2-Dimethyl-4-(5-(4-(3-(2-(piperidin-1-yl)ethyl)ureido)phenyl)thiazol-2-yl)butanoic acid]
> 50 | CC(C)(CCc1ncc(-c2ccc(NC(=O)NCc3ccccc3)cc2)s1)C(=O)O [Example 259, 4-(5-(4-(3-Benzylureido)phenyl)thiazol-2-yl)-2,2-dimethylbutanoic acid]
20 to 50 | CC(C)(CCc1ncc(-c2ccc(NC(=O)N3CCC(F)(F)CC3)cc2)s1)C(=O)O [Example 261, 4-(5-(4-(4,4-Difluoropiperidine-1-carboxamido)phenyl)thiazol-2-yl)-2,2-dimethyl butanoic acid]
> 50 | CC(C)(CCc1ncc(-c2ccc(NC(=O)N3CCC(c4ccccc4)CC3)cc2)s1)C(=O)O [Example 263, 2,2-Dimethyl-4-(5-(4-(4-phenylpiperidine-1-carboxamido)phenyl)thiazol-2-yl)butanoic acid]
